Experimental findings from US20240182445A1 (ONO PHARMACEUTICAL CO., LTD., priority 2019, published 2024) are described below.

In one test the target is T1, human TREK-1 (Homo sapiens, UniProt O95069).
T1 construct: expressed in transfected cells
T1 sequence (O95069 1-426): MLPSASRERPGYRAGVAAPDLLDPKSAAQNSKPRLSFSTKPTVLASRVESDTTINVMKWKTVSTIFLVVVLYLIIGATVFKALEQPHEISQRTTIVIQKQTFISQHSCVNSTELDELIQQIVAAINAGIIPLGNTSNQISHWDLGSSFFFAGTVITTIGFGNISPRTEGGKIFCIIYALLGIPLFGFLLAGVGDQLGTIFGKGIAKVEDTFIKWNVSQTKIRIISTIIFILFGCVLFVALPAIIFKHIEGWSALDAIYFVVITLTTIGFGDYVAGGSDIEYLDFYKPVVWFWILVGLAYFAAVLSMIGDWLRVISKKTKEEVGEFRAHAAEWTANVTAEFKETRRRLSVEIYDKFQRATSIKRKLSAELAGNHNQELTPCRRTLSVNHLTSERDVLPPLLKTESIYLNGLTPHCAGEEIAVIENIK
In words: TREK-1 Thallium (Tl+) flux assay, Method 1. The test is classed as cell-based. Particulars: TREK-1 Thallium (Tl+) flux assay; no *^12 (Method 2) mark on these rows. The procedure, abridged:
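Readout: Thallos fluorescence ratio, taken 25 s post-thallium relative to the pre-thallium baseline average, then converted to % inhibition. Cells were CHO-K1 stably expressing human TREK-1, dye-loaded and exposed to test compound (vehicle 0.3% DMSO) for 10 min prior to thallium stimulation.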
On to `CC(=O)N1CC[C@@H](Cn2ncc(Cl)c2C(=O)Nc2ncc(C#Cc3ccccc3)cc2C)[C@H](F)C1` [Compound 208, 1-(((3S,4S)-1-acetyl-3-fluoropiperidin-4-yl)methyl)-4-chloro-N-(3-methyl-5-(phenylethynyl)pyridin-2-yl)-1H-pyrazole-5-carboxamide], for which the IC50 came to 310 nM.

`Cc1cc(C#Cc2ccccc2)cc(F)c1NC(=O)c1c(Cl)cnn1C[C@@H]1CCOC1` [Compound 200, (S)-4-chloro-N-(2-fluoro-6-methyl-4-(phenylethynyl)phenyl)-1-((tetrahydrofuran-3-yl)methyl)-1H-pyrazole-5-carboxamide]: the midpoint of inhibition, the IC50, lay at 310 nM.

As to `Cc1cc(C#Cc2ccccc2)cnc1NC(=O)c1c(Cl)cnn1C[C@@H]1CCN(C(=O)C(C)C)C[C@H]1F` [Compound 222, 4-chloro-1-(((3S,4S)-3-fluoro-1-isobutyrylpiperidin-4-yl)methyl)-N-(3-methyl-5-(phenylethynyl)pyridin-2-yl)-1H-pyrazole-5-carboxamide], the 50% inhibitory concentration (IC50) was found to be 340 nM.

For `Cc1cc(C#Cc2ccccc2)cnc1NC(=O)c1c(Cl)cnn1CC1CCCO1` (stereo not drawn) [Compound 345, 4-chloro-N-(3-methyl-5-(phenylethynyl)pyridin-2-yl)-1-((tetrahydrofuran-2-yl)methyl)-1H-pyrazole-5-carboxamide], the half-inhibitory concentration (IC50) stood at 770 nM.

The compound `Cc1cc(C#Cc2ccccc2)cnc1NC(=O)c1c(Cl)cnn1C1CC2(C1)CN(C(=O)C(C)C)C2` [Compound 212, 4-chloro-1-(2-isobutyryl-2-azaspiro[3.3]heptan-6-yl)-N-(3-methyl-5-(phenylethynyl)pyridin-2-yl)-1H-pyrazole-5-carboxamide] showed a concentration for half-maximal inhibition (IC50) of 330 nM.

Regarding `Cc1cc(C#Cc2ccccc2)cnc1NC(=O)c1c(Cl)cnn1C1CCCN(C(=O)OC(C)(C)C)CC1` (stereo not drawn) [Compound 277, tert-butyl 4-(4-chloro-5-((3-methyl-5-(phenylethynyl)pyridin-2-yl)carbamoyl)-1H-pyrazol-1-yl)azepane-1-carboxylate], the IC50 was determined as 480 nM.

On to `Cc1cc(C#Cc2ccccc2)cnc1NC(=O)c1c(Cl)cnn1C1CC(C#N)C1` (stereo not drawn) [Compound 254, 4-chloro-1-(3-cyanocyclobutyl)-N-(3-methyl-5-(phenylethynyl)pyridin-2-yl)-1H-pyrazole-5-carboxamide], for which the IC50 is 420 nM.

Consider `O=C(Nc1ncc(C#Cc2ccc(F)cc2)cc1F)c1c(Cl)cnn1[C@@H]1CCN(C(=O)C2COCCO2)C[C@H]1F` (stereo partly drawn) [Compound 235, 1-((3R,4R)-1-(1,4-dioxane-2-carbonyl)-3-fluoropiperidin-4-yl)-4-chloro-N-(3-fluoro-5-((4-fluorophenyl)ethynyl)pyridin-2-yl)-1H-pyrazole-5-carboxamide], for which the half-inhibitory concentration (IC50) amounted to 360 nM.

Consider `Cc1cc(C#Cc2ccc(F)cc2)cnc1NC(=O)c1c(Cl)cnn1C[C@H]1CCCN(C(=O)C(C)C)C1` [Compound 320, (S)-4-chloro-N-(5-((4-fluorophenyl)ethynyl)-3-methylpyridin-2-yl)-1-((1-isobutyrylpiperidin-3-yl)methyl)-1H-pyrazole-5-carboxamide], for which the half-inhibitory concentration (IC50) amounted to 620 nM.

On to `Cc1cc(C#Cc2ccccc2)cnc1NC(=O)c1c(Cl)cnn1CC1(C#N)CCCC1` [Compound 242, 4-chloro-1-((1-cyanocyclopentyl)methyl)-N-(3-methyl-5-(phenylethynyl)pyridin-2-yl)-1H-pyrazole-5-carboxamide], for which the IC50 was found to be 380 nM.

Compound `Cc1cc(C#Cc2ccc(F)cc2)cnc1NC(=O)c1c(Cl)cnn1CC1CN(C(=O)C2CCC2)CCO1` (stereo not drawn) [Compound 367, 4-chloro-1-((4-(cyclobutanecarbonyl)morpholin-2-yl)methyl)-N-(5-((4-fluorophenyl)ethynyl)-3-methylpyridin-2-yl)-1H-pyrazole-5-carboxamide] registered a concentration for half-maximal inhibition (IC50) of 940 nM.

Regarding `Cc1cc(C#Cc2ccc(F)cc2)cnc1NC(=O)c1c(Cl)cnn1CCN1CCN(C(=O)C2COCCO2)CC1` (stereo not drawn) [Compound 246, 1-(2-(4-(1,4-dioxane-2-carbonyl)piperazin-1-yl)ethyl)-4-chloro-N-(5-((4-fluorophenyl)ethynyl)-3-methylpyridin-2-yl)-1H-pyrazole-5-carboxamide], the IC50 amounted to 390 nM.

`Cc1cc(C#Cc2ccccc2)cnc1NC(=O)c1c(Cl)cnn1[C@H]1C[C@H](NC(=O)OC(C)(C)C)C1` [Compound 292, tert-butyl (trans-3-(4-chloro-5-((3-methyl-5-(phenylethynyl)pyridin-2-yl)carbamoyl)-1H-pyrazol-1-yl)cyclobutyl)carbamate] displayed an IC50 of 520 nM.

On to `Cc1cc(C#Cc2cccc(F)c2)cnc1NC(=O)c1c(Cl)cnn1[C@H]1C[C@@H]2CN(C(=O)C(C)C)C[C@@H]2C1` [Compound 349, 4-chloro-N-{5-[(3-fluorophenyl)ethynyl]-3-methylpyridin-2-yl}-1-[(3aR,5s,6aS)-2-(2-methylpropanoyl)octahydrocyclopenta [c]pyrrol-5-yl]-1H-pyrazole-5-carboxamide], for which inhibition was half-maximal at 810 nM (IC50).

For `Cc1cc(C#Cc2ccc(F)cc2)cnc1NC(=O)c1c(Cl)cnn1C[C@@H]1CCN(C(=O)C(C)C)C[C@H]1F` [Compound 293, 4-chloro-1-(((3S,4S)-3-fluoro-1-isobutyrylpiperidin-4-yl)methyl)-N-(5-((4-fluorophenyl)ethynyl)-3-methylpyridin-2-yl)-1H-pyrazole-5-carboxamide], the midpoint of inhibition, the IC50, lay at 520 nM.

Staying with this test, now noted: TREK-1 Thallium (Tl+) flux assay; values without footnote *12 are Method 1.
As to `Cc1cc(C#Cc2ccc(F)cc2)cnc1NC(=O)c1c(Cl)cnn1C1CCN(C(=O)C(C)(C)C)CC1` [Compound 181, 4-chloro-N-(5-((4-fluorophenyl)ethynyl)-3-methylpyridin-2-yl)-1-(1-pivaloylpiperidin-4-yl)-1H-pyrazole-5-carboxamide], the 50% inhibitory concentration (IC50) turned out to be 280 nM.

In turn, `O=C(Nc1ncc(C#Cc2ccccc2)cc1F)c1c(Cl)cnn1CCC1CCN(C(=O)C2CC2)CC1` [Compound 56, 4-chloro-1-(2-(1-(cyclopropanecarbonyl)piperidin-4-yl)ethyl)-N-(3-fluoro-5-(phenylethynyl)pyridin-2-yl)-1H-pyrazole-5-carboxamide] gave an IC50 of 140 nM.

For the compound `CC1(C(=O)N2CCC(n3ncc(Cl)c3C(=O)Nc3ncc(C#Cc4ccccc4)cc3F)CC2)CCC1` [Compound 112, 4-chloro-N-(3-fluoro-5-(phenylethynyl)pyridin-2-yl)-1-(1-(1-methylcyclobutane-1-carbonyl)piperidin-4-yl)-1H-pyrazole-5-carboxamide], the IC50 turned out to be 200 nM.

With `CC(=O)N1CCC(n2ncc(Cl)c2C(=O)Nc2ncc(C#Cc3ccccc3)cc2C)CC1C` (stereo not drawn) [Compound 61, 1-(1-acetyl-2-methylpiperidin-4-yl)-4-chloro-N-(3-methyl-5-(phenylethynyl)pyridin-2-yl)-1H-pyrazole-5-carboxamide], the half-maximal inhibitory concentration (IC50) amounted to 150 nM.

`O=C(Nc1ncc(C#Cc2ccccc2)cc1F)c1c(Cl)cnn1C1CCN(C(=O)C2CC2)CC1` [Compound 130, 4-chloro-1-(1-(cyclopropanecarbonyl)piperidin-4-yl)-N-(3-fluoro-5-(phenylethynyl)pyridin-2-yl)-1H-pyrazole-5-carboxamide] registered a half-maximal inhibitory concentration (IC50) of 220 nM.

Take `Cc1cc(C#Cc2ccccc2)cnc1NC(=O)c1c(Cl)cnn1C(C)C1CCN(C(=O)C(C)C)CC1` (stereo not drawn) [Compound 28, 4-chloro-1-(1-(1-isobutyrylpiperidin-4-yl)ethyl)-N-(3-methyl-5-(phenylethynyl)pyridin-2-yl)-1H-pyrazole-5-carboxamide]: the 50% inhibitory concentration (IC50) was determined as 90 nM.

The compound `CC(=O)N1CCOC(Cn2ncc(Cl)c2C(=O)Nc2ncc(C#Cc3ccccc3)cc2C)C1` (stereo not drawn) [Compound 105, 1-((4-acetylmorpholin-2-yl)methyl)-4-chloro-N-(3-methyl-5-(phenylethynyl)pyridin-2-yl)-1H-pyrazole-5-carboxamide] displayed a 50% inhibitory concentration (IC50) of 190 nM.

In turn, `CC(C)C(=O)N1CCOC(Cn2ncc(Cl)c2C(=O)Nc2ncc(C#Cc3ccccc3)cc2F)C1` (stereo not drawn) [Compound 145, 4-chloro-N-(3-fluoro-5-(phenylethynyl)pyridin-2-yl)-1-((4-isobutyrylmorpholin-2-yl)methyl)-1H-pyrazole-5-carboxamide] gave an IC50 of 230 nM.

`CC(=O)N1CCC(C#N)(Cn2ncc(Cl)c2C(=O)Nc2ncc(C#Cc3ccccc3)cc2F)CC1` [Compound 39, 1-((1-acetyl-4-cyanopiperidin-4-yl)methyl)-4-chloro-N-(3-fluoro-5-(phenylethynyl)pyridin-2-yl)-1H-pyrazole-5-carboxamide] displayed an IC50 of 120 nM.

`CC(=O)N1CCC(n2ncc(Cl)c2C(=O)Nc2c(F)cc(C#Cc3ccccc3)cc2F)CC1` [Compound 33, 1-(1-acetylpiperidin-4-yl)-4-chloro-N-(2,6-difluoro-4-(phenylethynyl)phenyl)-1H-pyrazole-5-carboxamide]: 110 nM corresponded to half-maximal inhibition (IC50).

In turn, `CC(=O)N1CC[C@H](Cn2ncc(Cl)c2C(=O)Nc2ncc(C#Cc3ccccc3)cc2F)[C@H](F)C1` [Compound 48, 1-(((3S,4R)-1-acetyl-3-fluoropiperidin-4-yl)methyl)-4-chloro-N-(3-fluoro-5-(phenylethynyl)pyridin-2-yl)-1H-pyrazole-5-carboxamide] displayed a 50% inhibitory concentration (IC50) of 130 nM.

For `CC(=O)N1CCC(n2ncc(Cl)c2C(=O)Nc2ncc(C#Cc3ccc(F)cc3)cc2C)CC1C` (stereo not drawn) [Compound 62, 1-(1-acetyl-2-methylpiperidin-4-yl)-4-chloro-N-(5-((4-fluorophenyl)ethynyl)-3-methylpyridin-2-yl)-1H-pyrazole-5-carboxamide], the IC50 is 150 nM.
